Assay results reported in US8895733B2 (Novartis AG, priority 2010, dated 2014).

Biological target: T1, Nav 1.7 (Homo sapiens, UniProt Q15858)
T1 construct: expressed in transfected cells
Test: Whole-cell voltage clamp electrophysiology, automated patch clamp (marker c in Table of Examples)
Assay type: cell-based
Conditions: marker c = Automated patch clamp data; read-out: Nav 1.7 activity
Procedure, shortened: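 Human NaV1.7 currents were recorded by whole-cell automated patch clamp, on IonWorks Quattro or another automated platform, typically in perforated-patch configuration. The stimulus protocol was designed to probe block mainly of the inactivated state, with a typical sweep stepping from about −65 mV holding to −10 mV, then −100 mV.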

T1 sequence (Q15858 whole entry): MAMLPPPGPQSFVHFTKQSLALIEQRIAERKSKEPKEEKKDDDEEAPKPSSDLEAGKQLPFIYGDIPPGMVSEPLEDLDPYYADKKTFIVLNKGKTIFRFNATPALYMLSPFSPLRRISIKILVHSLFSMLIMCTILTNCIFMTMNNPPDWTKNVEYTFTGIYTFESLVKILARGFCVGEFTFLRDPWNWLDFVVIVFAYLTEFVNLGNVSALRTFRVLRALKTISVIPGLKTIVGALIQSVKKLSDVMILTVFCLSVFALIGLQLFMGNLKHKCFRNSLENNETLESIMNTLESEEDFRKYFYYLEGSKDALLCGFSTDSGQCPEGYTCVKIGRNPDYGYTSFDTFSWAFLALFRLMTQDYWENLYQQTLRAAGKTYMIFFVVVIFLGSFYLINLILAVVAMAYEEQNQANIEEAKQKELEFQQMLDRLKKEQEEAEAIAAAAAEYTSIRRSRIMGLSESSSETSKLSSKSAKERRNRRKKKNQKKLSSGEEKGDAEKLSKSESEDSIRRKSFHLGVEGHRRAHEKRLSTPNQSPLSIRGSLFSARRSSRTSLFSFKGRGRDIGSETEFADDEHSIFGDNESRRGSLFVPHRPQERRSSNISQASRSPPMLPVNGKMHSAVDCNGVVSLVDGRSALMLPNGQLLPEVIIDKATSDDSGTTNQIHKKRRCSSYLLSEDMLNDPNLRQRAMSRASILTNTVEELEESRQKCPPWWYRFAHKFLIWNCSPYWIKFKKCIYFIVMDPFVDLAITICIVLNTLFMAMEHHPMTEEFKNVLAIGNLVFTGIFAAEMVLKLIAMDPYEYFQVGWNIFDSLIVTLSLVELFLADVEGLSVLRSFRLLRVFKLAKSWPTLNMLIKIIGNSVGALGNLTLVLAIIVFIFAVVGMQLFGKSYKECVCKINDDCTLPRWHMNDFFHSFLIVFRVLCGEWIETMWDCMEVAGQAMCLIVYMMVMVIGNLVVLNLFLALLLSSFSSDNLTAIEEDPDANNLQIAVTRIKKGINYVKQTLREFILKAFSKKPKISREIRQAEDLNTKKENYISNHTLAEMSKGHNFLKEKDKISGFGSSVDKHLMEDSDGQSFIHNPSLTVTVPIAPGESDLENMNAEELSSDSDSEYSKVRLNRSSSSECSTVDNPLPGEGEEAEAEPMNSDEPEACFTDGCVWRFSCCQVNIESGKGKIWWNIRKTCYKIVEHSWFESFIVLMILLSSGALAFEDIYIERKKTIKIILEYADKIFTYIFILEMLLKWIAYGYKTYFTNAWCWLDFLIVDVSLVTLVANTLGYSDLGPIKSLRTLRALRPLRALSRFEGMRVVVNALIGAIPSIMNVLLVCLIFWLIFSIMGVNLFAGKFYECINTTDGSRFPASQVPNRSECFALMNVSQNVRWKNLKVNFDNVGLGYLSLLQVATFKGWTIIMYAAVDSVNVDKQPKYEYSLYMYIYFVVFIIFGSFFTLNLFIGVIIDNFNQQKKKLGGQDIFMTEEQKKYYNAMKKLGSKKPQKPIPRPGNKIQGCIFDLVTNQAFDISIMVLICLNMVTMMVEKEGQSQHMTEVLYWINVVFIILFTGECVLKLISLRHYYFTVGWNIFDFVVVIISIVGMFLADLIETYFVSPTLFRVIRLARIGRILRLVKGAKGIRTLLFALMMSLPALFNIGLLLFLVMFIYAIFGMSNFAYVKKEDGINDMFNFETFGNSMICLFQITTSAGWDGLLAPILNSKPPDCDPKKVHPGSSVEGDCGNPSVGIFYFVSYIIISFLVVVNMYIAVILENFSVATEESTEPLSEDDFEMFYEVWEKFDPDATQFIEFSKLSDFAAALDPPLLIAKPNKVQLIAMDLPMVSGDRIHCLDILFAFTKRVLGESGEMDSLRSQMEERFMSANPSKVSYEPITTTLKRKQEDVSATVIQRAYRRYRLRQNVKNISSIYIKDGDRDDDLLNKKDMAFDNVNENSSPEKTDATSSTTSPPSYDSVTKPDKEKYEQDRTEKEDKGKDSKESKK

Structure (SMILES)	IC50
Nc1nc(Nc2cccc(Cl)c2F)nc(-c2noc(-c3ccccn3)n2)n1 [Example 264, 2-N-(3-Chloro-2-fluorophenyl)-6-[5-(pyridin-2-yl)-1,2,4-oxadiazol-3-yl]-1,3,5-triazine-2,4-diamine]	774 nM
Nc1nc(Nc2cccc(Cl)c2)nc(-c2noc(-c3ccccn3)n2)n1 [Example 265, 2-N-(3-chlorophenyl)-6-[5-(pyridin-2-yl)-1,2,4-oxadiazol-3-yl]-1,3,5-triazine-2,4-diamine]	386 nM
CN(c1ccccc1)c1nc(N)nc(-c2noc(C3CCCCC3)n2)n1 [Example 266, 6-(5-cyclohexyl-1,2,4-oxadiazol-3-yl)-2-N-methyl-2-N-phenyl-1,3,5-triazine-2,4-diamine]	4370 nM
CN(c1ccccc1)c1nc(N)nc(-c2noc(-c3ccc(C(F)(F)F)nc3)n2)n1 [Example 267, 2-N-methyl-2-N-phenyl-6-{5-[6-(trifluoromethyl)pyridin-3-yl]-1,2,4-oxadiazol-3-yl}-1,3,5-triazine-2,4-diamine]	> 8260 nM
Cc1ncccc1-c1nc(-c2nc(N)nc(N(C)c3ccccc3)n2)no1 [Example 268, 2-N-methyl-6-[5-(2-methylpyridin-3-yl)-1,2,4-oxadiazol-3-yl]-2-N-phenyl-1,3,5-triazine-2,4-diamine]	1360 nM
CN(c1ccccc1)c1nc(N)nc(-c2noc(-c3cccc(N4CCOCC4)n3)n2)n1 [Example 270, 2-N-methyl-6-{5-[6-(morpholin-4-yl)pyridin-2-yl]-1,2,4-oxadiazol-3-yl}-2-N-phenyl-1,3,5-triazine-2,4-diamine]	3650 nM
CN(c1cccc(Cl)c1)c1nc(N)nc(-c2noc(-c3ncccc3F)n2)n1 [Example 272, 2-N-(3-chlorophenyl)-6-[5-(3-fluoropyridin-2-yl)-1,2,4-oxadiazol-3-yl]-2-N-methyl-1,3,5-triazine-2,4-diamine]	478 nM
CN(c1ccccc1)c1nc(N)nc(-c2noc(-c3ncccc3Cl)n2)n1 [Example 273, 6-[5-(3-chloropyridin-2-yl)-1,2,4-oxadiazol-3-yl]-2-N-methyl-2-N-phenyl-1,3,5-triazine-2,4-diamine]	253 nM
CN(c1ccccc1)c1nc(N)nc(-c2noc(N3CCC(NC(=O)C(F)(F)F)CC3)n2)n1 [Example 274, N-[1-(3-{4-amino-6-[methyl(phenyl)amino]-1,3,5-triazin-2-yl}-1,2,4-oxadiazol-5-yl)piperidin-4-yl]-2,2,2-trifluoroacetamide]	8580 nM
CN(c1ccccc1)c1nc(N)nc(-c2noc(-c3cccnc3Cl)n2)n1 [Example 275, 6-[5-(2-chloropyridin-3-yl)-1,2,4-oxadiazol-3-yl]-2-N-methyl-2-N-phenyl-1,3,5-triazine-2,4-diamine]	3490 nM
CN(c1ccccc1)c1nc(N)nc(-c2noc(C(=O)N3CCCC3)n2)n1 [Example 276, 2-N-methyl-2-N-phenyl-6-{5-[(pyrrolidin-1-yl)carbonyl]-1,2,4-oxadiazol-3-yl}-1,3,5-triazine-2,4-diamine]	1680 nM
CN(c1ccccc1)c1nc(N)nc(-c2noc(C(=O)N3CCCCC3)n2)n1 [Example 277, 2-N-methyl-2-N-phenyl-6-{5-[(piperidin-1-yl)carbonyl]-1,2,4-oxadiazol-3-yl}-1,3,5-triazine-2,4-diamine]	3260 nM
COC(=O)c1ccc(-c2nc(-c3nc(N)nc(N(C)c4ccccc4)n3)no2)cn1 [Example 279, methyl 5-(3-{4-amino-6-[methyl(phenyl)amino]-1,3,5-triazin-2-yl}-1,2,4-oxadiazol-5-yl)pyridine-2-carboxylate]	444 nM
CN(c1ccccc1)c1nc(N)nc(-c2noc(-c3ccc(C(=O)NCC(F)(F)F)nc3)n2)n1 [Example 280, 5-(3-{4-Amino-6-[methyl(phenyl)amino]-1,3,5-triazin-2-yl}-1,2,4-oxadiazol-5-yl)-N-(2,2,2-trifluoroethyl)pyridine-2-carboxamide]	513 nM
CN(c1ccccc1)c1nc(N)nc(-c2noc(-c3ncc(F)cc3F)n2)n1 [Example 281]	1810 nM
Cc1ccc(-c2nc(-c3nc(N)nc(N(C)c4ccccc4)n3)no2)cn1 [Example 283, 2-N-methyl-6-[5-(6-methylpyridin-3-yl)-1,2,4-oxadiazol-3-yl]-2-N-phenyl-1,3,5-triazine-2,4-diamine]	1380 nM
CN(c1ccccc1)c1nc(N)nc(-c2noc(-c3ccc(C(N)=O)nc3)n2)n1 [Example 284, 5-(3-{4-Amino-6-[methyl(phenyl)amino]-1,3,5-triazin-2-yl}-1,2,4-oxadiazol-5-yl)pyridine-2-carboxamide]	711 nM
COC(=O)c1ccc(-c2nc(-c3nc(N)nc(N(C)c4ccccc4)n3)no2)nc1 [Example 285, methyl 6-(3-{4-amino-6-[methyl(phenyl)amino]-1,3,5-triazin-2-yl}-1,2,4-oxadiazol-5-yl)pyridine-3-carboxylate]	308 nM

Structure (SMILES)	IC50
CN(c1ccccc1)c1nc(N)nc(-c2noc(-c3ccc(C(=O)NC4CCC4)nc3)n2)n1 [Example 286, 5-(3-{4-amino-6-[methyl(phenyl)amino]-1,3,5-triazin-2-yl}-1,2,4-oxadiazol-5-yl)-N-cyclobutylpyridine-2-carboxamide]	1070 nM
CN(c1ccccc1)c1nc(N)nc(-c2noc(-c3ccc(C(=O)NC4CC4)nc3)n2)n1 [Example 287, 5-(3-{4-amino-6-[methyl(phenyl)amino]-1,3,5-triazin-2-yl}-1,2,4-oxadiazol-5-yl)-N-cyclopropylpyridine-2-carboxamide]	1890 nM
CN(c1ccccc1)c1nc(N)nc(-c2noc(-c3ccc(C(=O)NCC4CC4)nc3)n2)n1 [Example 288, 5-(3-{4-amino-6-[methyl(phenyl)amino]-1,3,5-triazin-2-yl}-1,2,4-oxadiazol-5-yl)-N-(cyclopropylmethyl)pyridine-2-carboxamide]	1140 nM
CC(C)OC(=O)c1ccc(-c2nc(-c3nc(N)nc(N(C)c4ccccc4)n3)no2)cn1 [Example 289, propan-2-yl 5-(3-{4-amino-6-[methyl(phenyl)amino]-1,3,5-triazin-2-yl}-1,2,4-oxadiazol-5-yl)pyridine-2-carboxylate]	390 nM
CN(c1ccccc1)c1nc(N)nc(-c2noc(-c3ccc(C(=O)OC4CCCC4)nc3)n2)n1 [Example 290, cyclopentyl 5-(3-{4-amino-6-[methyl(phenyl)amino]-1,3,5-triazin-2-yl}-1,2,4-oxadiazol-5-yl)pyridine-2-carboxylate]	59 nM
CN(c1ccccc1)c1nc(N)nc(-c2noc(-c3ccc(C(=O)NCC(F)(F)F)cn3)n2)n1 [Example 292, 6-(3-{4-amino-6-[methyl(phenyl)amino]-1,3,5-triazin-2-yl}-1,2,4-oxadiazol-5-yl)-N-(2,2,2-trifluoroethyl)pyridine-3-carboxamide]	2710 nM
CN(c1ccccc1)c1nc(N)nc(-c2noc(-c3ccc(CN4CCCC4)nc3)n2)n1 [Example 293, 2-N-Methyl-2-N-phenyl-6-{5-[6-(pyrrolidin-1-ylmethyl)pyridin-3-yl]-1,2,4-oxadiazol-3-yl}-1,3,5-triazine-2,4-diamine]	1350 nM
CC(c1ccc(-c2nc(-c3nc(N)nc(N(C)c4ccccc4)n3)no2)nc1)N1CCCC1 (centres unmarked) [Example 294, 2-N-Methyl-2-N-phenyl-6-(5-{5-[1-(pyrrolidin-1-yl)ethyl]pyridin-2-yl}-1,2,4-oxadiazol-3-yl)-1,3,5-triazine-2,4-diamine]	3980 nM
CN(c1ccccc1)c1nc(N)nc(-c2noc(-c3ccc(CO)nc3)n2)n1 [Example 295, [5-(3-{4-Amino-6-[methyl(phenyl)amino]-1,3,5-triazin-2-yl}-1,2,4-oxadiazol-5-yl)pyridin-2-yl]methanol]	5190 nM
CC(=O)c1ccc(-c2nc(-c3nc(N)nc(N(C)c4ccccc4)n3)no2)nc1 [Example 296, 1-[6-(3-{4-amino-6-[methyl(phenyl)amino]-1,3,5-triazin-2-yl}-1,2,4-oxadiazol-5-yl)pyridin-3-yl]ethan-1-one]	274 nM
COC(=O)c1ccc(-c2nc(-c3nc(N)nc(Nc4ccccc4)n3)no2)cn1 [Example 297]	210 nM
CN(c1ccccc1)c1nc(N)nc(-c2noc(-c3ccc(CN4CCOCC4)nc3)n2)n1 [Example 299, 2-N-methyl-6-{5-[6-(morpholin-4-ylmethyl)pyridin-3-yl]-1,2,4-oxadiazol-3-yl}-2-N-phenyl-1,3,5-triazine-2,4-diamine]	1110 nM
CN(c1ccccc1)c1nc(N)nc(-c2noc(-c3ccc(CNC4CCC4)nc3)n2)n1 [Example 300, 6-(5-{6-[(cyclobutylamino)methyl]pyridin-3-yl}-1,2,4-oxadiazol-3-yl)-2-N-methyl-2-N-phenyl-1,3,5-triazine-2,4-diamine]	619 nM
CN(c1ccccc1)c1nc(N)nc(-c2noc(-c3cccnc3COCC(F)(F)F)n2)n1 [Example 301, 2-N-methyl-2-N-phenyl-6-(5-{2-[(2,2,2-trifluoroethoxy)methyl]pyridin-3-yl}-1,2,4-oxadiazol-3-yl)-1,3,5-triazine-2,4-diamine]	338 nM
CN(c1ccccc1)c1nc(N)nc(-c2noc(-c3ncccc3COCC(F)(F)F)n2)n1 [Example 302, 2-N-methyl-2-N-phenyl-6-(5-{3-[(2,2,2-trifluoroethoxy)methyl]pyridin-2-yl}-1,2,4-oxadiazol-3-yl)-1,3,5-triazine-2,4-diamine]	406 nM
CC(=O)c1ccc(-c2nc(-c3nc(N)nc(N(C)c4ccccc4)n3)no2)cn1 [Example 304, 1-[5-(3-{4-Amino-6-[methyl(phenyl)amino]-1,3,5-triazin-2-yl}-1,2,4-oxadiazol-5-yl)pyridin-2-yl]ethan-1-one]	746 nM
C=Cc1ccc(-c2nc(-c3nc(N)nc(N(C)c4ccccc4)n3)no2)cc1 [Example 305, 6-[5-(4-ethenylphenyl)-1,2,4-oxadiazol-3-yl]-2-N-methyl-2-N-phenyl-1,3,5-triazine-2,4-diamine]	804 nM
